# Results: patent US9409906B2, “Pyrimido[4,5-B]indole derivatives and use thereof in the expansion of hematopoietic stem cells” (UNIVERSITÉ DE MONTRÉAL, priority 2012, dated 2016)
# Entries after “also recorded” stand apart in the source; their conditions may differ.
# Legend:
# [1] = test system: Mobilized peripheral blood CD34(+) cells; assay: Reversibility (wash-out) of compound effect on CD34+CD45RA− percentage (FIG. 2); type: cell-based, human; conditions: for reversibility of effect on CD34+CD45RA− percentage after wash-out: 7 days with compound, washed, 8 additional days
# Protocol: FIG. 2: Effect of compound 1 is reversible. Mobilized peripheral blood CD34(+) cells cultured for 7 days with compound 1 (shown in green) or vehicle (DMSO, shown in blue) were washed and re-plated in fresh media with or without Compound addition (solid vs dashed line respectively). Cells were cultured for 8 additional days and the percentage of CD34+CD45RA− was monitored.
# This effect is best shown in FIG. 2 where CD34+ mobilized peripheral blood cells are cultured in the presence of Compound 1 for up to 7 days, at which time the Compound 1 is removed by washing the cells.
# [2] = test system: CD34+ mobilized peripheral blood cells; assay: FACS analysis of differentiation of CD34+ mobilized peripheral blood cells (FIG. 4A); type: cell-based, human
# Description: FIG. 4A illustrates the impact of Compound 1 on mobilized peripheral blood cell differentiation. Following a 7 day expansion, a relatively pure (>85% CD34^+) population of mobilized peripheral blood was exposed to control the (DMSO) or Compound 1 or SR1 or Compound 1+SR1.
# [3] = test system: primary human mobilized CD34+ cells; assay: High throughput screening assay on primary human mobilized CD34+ cells, with secondary screen; type: cell-based
# Description: To identify novel putative agonists of HSC self-renewal, we have adapted a high throughput based-screening assay to test a library of small molecule compounds (5,280 low molecular weight compounds) on primary human mobilized CD34+ cells. It is to be understood that the same approach applies to CD34+ cells from the various sources known by a person skilled in the art to isolate CD34+ cells. Mononuclear cells were stained with Mouse antihuman CD34+APC (from BD Pharmingen) and subsequently magnetically labeled with Anti-APC magnetic MicroBeads (from MACS, Miltenyi Biotec). The magnetically labeled cells were retained using AutoMACS column. […]
# In a 384-well plate, 2000 CD34^+ cells/well were cultured in 50 μl medium containing 1 μM of test compounds or 0.1% DMSO (vehicle). The proportion of CD34^+CD45RA^− cells was determined at the start of the experiment and after a 7-day incubation. Six out of the 5,280 compounds of different chemical backgrounds initially tested promoted CD34+CD45RA− cell expansion, and seventeen (17) enhanced differentiation as determined by the increase in proportions of CD34−CD45RA+ cells compared to control (DMSO). The six compounds promoting expansion of the CD34+CD45RA− cell population were re-analyzed in a secondary screen. […]
# [4] = test system: CD34+ mPB cells; assay: Colony-forming units in culture (CFU-C) assay in methylcellulose; type: cell-based, human; conditions: 1000 CD34+ mPB cells treated for 10 days
# Protocol: The ex vivo functionality of expanded cells was tested using the conventional colony-forming units in culture (CFU-C) assay. Untreated cells or cells incubated with DMSO, positive control or a compound of the invention were plated in methylcellulose medium in conventional conditions. As an example, Compound 1 (Table 1, Example 1) expands the number of multipotent hematopoietic progenitors.
# [5] = test system: Mobilized peripheral blood CD34(+) cells; assay: Growth factor (Flt3, SCF, TPO) requirement / mitogen test (FIG. 3); type: cell-based, human
# Protocol: FIG. 3: Flt3, SCF, and TPO are required for compound 1 mediated stem cell expansion. Mobilized peripheral blood CD34(+) cells were cultured for 7 days in the presence or absence of the growth factors (Flt3+SCF+TPO).
# This indicate that akin to SR1, Compound 1's effect on maintenance of primitive HSC phenotype ex vivo is not due to a mitogenic effect on this population but rather on the prevention of cell differentiation.
# [6] = test system: CD34+ mPB cells transplanted in NSG mice; assay: Engraftment of cultured CD34+ mPB cells in NSG mice
# [7] = test system: CD34+CD45RA− cord blood cells; assay: Ex vivo expansion of cord blood-derived CD34+ and CD34+CD45RA− cells (FIG. 5B, 5C); type: cell-based, human
# [8] = test system: CD34+ CB cells transplanted in NSG mice; assay: Engraftment of cultured CD34+ cord blood cells in NSG mice (FIG. 7); conditions: outcome of 5,000 CD34+ CB cells, 7 days culture, 8-weeks post transplantation (FIG. 7A)
# Description: These experiments were done in short term cultures i.e. 7 days.
# [9] = test system: AhR-responsive genes (CYP1B1 and AhRR); assay: Real-time quantitative RT-PCR for AhR-responsive genes (FIG. 1); type: cell-based, human; conditions: mPB CD34(+) cells, 12 hours, Compound 1 500 nM
# Protocol: Mobilized peripheral blood CD34(+) cells were cultured for 12 hours with DMSO, SR1 [AhR antagonist 1000 nM], and Compound 1 [500 nM], cells were harvested and real-time quantitative RT-PCR for AhR-responsive genes (CYP1B1 and AhRR) was performed.
# [10] = outcome of 2,000,000 and 500,000 cells cultured 10 days, 8 weeks post transplantation
structure (smiles),measurement,setting,value
"COC(=O)c1ccc2c(c1)[nH]c1ncnc(NCCCN3CCCCC3)c12 [Compound 1, Methyl 4-((3-(piperidin-1-yl)propyl)amino)-9H-pyrimido[4,5-b]indole-7-carboxylate]",reversibility of effect on CD34+CD45RA− percentage after wash-out,[1],rapidly reversible
same,reversibility of effect on CD34+CD45RA− percentage after wash-out,[1]; listed as compound 1,reversible
same,compound-free exposure until cells acquired differentiation markers as in control cultures,[1]; after wash-out at day 7,≤ 2 days
same,loss of CD34 cell surface expression,"[2]; 7 day expansion, optimal levels, vs DMSO control",partly abrogated
same,differentiation of CD34+ mobilized peripheral blood cells,[2]; FACS / cytological analysis,prevent cell differentiation; also recorded: reduces differentiation
same,CD34+ cell population compared to DMSO treated control cells,[2]; FACS analysis,able to expand CD34+ cell population
same,CD34+CD45RA− cells vs SR1 or control cultures,"[2]; FIG. 4A, 4B bottom panels",more numerous
same,aryl hydrocarbon receptor (AhR) antagonism,[3],not being aryl hydrocarbon receptor (AhR) antagonists
same,expansion of MNCs including CD34+ cells,[3]; 7-day incubation,promote the expansion of MNCs including CD34+ cells
same,increase in multilineage GEMM colonies compared to control cells,[4],10 fold
same,increase in multilineage GEMM colonies over input cells,[4],5 fold
same,"induction of cell proliferation in the absence of growth factors (Flt3, TPO, SCF)",[5],not able to induce cell proliferation
same,CD34+CD45RA− cell count in the absence of any of the growth factors,"[5]; 7 days, with or without Flt3+SCF+TPO",lower
same,human hematopoietic engraftment (human CD45+ cells in BM),"[6]; cells cultured ten days, outcome of 50,000 and 500,000 cells, 13 week post-transplantation",superior to SR1; also recorded: engrafted better than that of DMSO
same,engraftment of NSG mice (human CD45),[6]; [10],able to engraft NSG mice
same,reconstitution of human myeloid and lymphoid compartments in bone marrow,[6]; [10],positive for human CD33+ and CD19+
same,expansion of cord blood-derived CD34+ and CD34+CD45RA− cells,[7]; 7-day incubation,enhances expansion
same,in vitro expansion of cord blood-derived CD34+ and CD34+CD45RA− cells,[7]; 12-day incubation,positive effect
same,expansion of CD34+CD45RA− cord blood cells,"[7]; seven day period, DMSO about fifteen fold",30-40 fold
same,human CD45+ engraftment / reconstitution activity,[8],clear effect on reconstitution activity
same,human CD45+ engraftment / reconstitution activity,[8]; listed as compound 1,human CD45+ engraftment
same,suppression of AhR-downstream target genes (CYP1B1 and AhRR),[9],does not suppress AhR-downstream target genes
